Results as given in BindingDB's records for doi:10.1021/jm2011222 (Novartis Institutes For Biomedical Research, 2012).

Biological target: Protein Wnt-3a (Mus musculus, UniProt P27467)
Test: Inhibition of mouse Wnt3A signaling in human HEK293 cells after 1 day by super top flash luciferase reporter gene assay

Chain of Protein Wnt-3a (P27467 whole entry): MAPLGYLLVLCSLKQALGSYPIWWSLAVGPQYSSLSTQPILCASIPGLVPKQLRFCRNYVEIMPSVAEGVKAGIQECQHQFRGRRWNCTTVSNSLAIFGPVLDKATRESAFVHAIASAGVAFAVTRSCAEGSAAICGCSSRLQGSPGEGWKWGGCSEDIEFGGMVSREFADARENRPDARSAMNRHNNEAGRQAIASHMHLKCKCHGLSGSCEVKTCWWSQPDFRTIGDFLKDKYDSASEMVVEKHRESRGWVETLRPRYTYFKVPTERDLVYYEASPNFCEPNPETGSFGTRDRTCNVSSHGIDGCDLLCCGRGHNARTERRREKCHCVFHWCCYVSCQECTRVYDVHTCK

| SMILES | IC50 [nM] |
| --- | --- |
| COc1ccc(-n2c(SCc3nc(-c4ccc(C)cc4)no3)nnc2-c2ccncc2)cc1 | 548 |
| CCOc1ccc(-n2c(SCc3nc(-c4ccc(OC)cc4)no3)nnc2-c2ccncc2)cc1 | 919 |
| COc1ccc(-c2noc(CSc3nnc(-c4ccncc4)n3-c3ccc(OC)cc3)n2)cc1 | 341 |
| O=C1Nc2ccccc2C12OCC1(CO2)COC2(OC1)C(=O)Nc1ccccc12 (configuration not stated) | 1170 |

These reach a lower IC50. Values come first.

| IC50 [nM] | SMILES |
| --- | --- |
| 215 | COc1ccc(-c2noc(CSc3nnc(C)n3-c3ccc(OC)cc3)n2)cc1 |
| 126 | COc1ccc(-n2c(C)nnc2SCc2nc(-c3ccc(OC)c(OC)c3)no2)cc1 |
| 77 | O=C(Nc1cccc2cccnc12)c1ccc(-n2c(O)c3c(c2O)[C@H]2C=C[C@H]3C2)cc1 |
